Common to all, as to assay type: cell-based
One experiment deals with hKv1.3 (Homo sapiens, UniProt P22001). Description: cell-based. Particulars: Kv1.3 (IWQ) IC50 (nM, Avg).
Experiment [1] concerns IL-2 secretion from T cells in human whole blood. The settings on record: read-out: WB (IL-2) IC50 (nM, Avg).
In experiment [2] the test system is IFN-g secretion from T cells in human whole blood. The settings on record: read-out: WB (IFNg) IC50 (nM, Avg).

From US20120121591A1 (priority 2009, published 2012) come the findings set out here.

Each structure is given as a SMILES string.

The IC50 is the concentration needed to halve the response being measured.

Sequence of hKv1.3 (P22001 whole entry): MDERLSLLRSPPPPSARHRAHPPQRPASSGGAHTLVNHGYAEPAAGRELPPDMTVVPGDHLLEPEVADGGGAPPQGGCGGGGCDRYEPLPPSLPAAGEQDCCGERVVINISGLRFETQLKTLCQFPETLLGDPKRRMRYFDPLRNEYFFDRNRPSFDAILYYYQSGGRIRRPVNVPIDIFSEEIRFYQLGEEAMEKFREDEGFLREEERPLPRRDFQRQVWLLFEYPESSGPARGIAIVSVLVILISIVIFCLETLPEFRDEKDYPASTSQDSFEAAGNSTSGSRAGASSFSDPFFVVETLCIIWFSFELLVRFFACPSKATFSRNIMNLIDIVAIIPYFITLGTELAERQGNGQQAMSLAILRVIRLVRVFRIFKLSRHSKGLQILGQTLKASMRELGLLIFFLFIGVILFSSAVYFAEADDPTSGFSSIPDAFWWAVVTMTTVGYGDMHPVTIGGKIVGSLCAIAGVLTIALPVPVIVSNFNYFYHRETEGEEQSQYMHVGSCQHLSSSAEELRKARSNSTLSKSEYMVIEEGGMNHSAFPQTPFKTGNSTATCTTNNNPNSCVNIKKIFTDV

As for `CCC[C@@H]1NC(=O)[C@H](CO)NC(=O)[C@H](Cc2c[nH]cn2)NC(=O)[C@H](CCCCN)NC(=O)[C@@H]2CSSC[C@@H]3NC(=O)[C@H]([C@@H](C)O)NC(=O)[C@H](CCCCN)NC(=O)[C@H](CCCNC(=N)N)NC(=O)[C@H](CSSC[C@H](NC(=O)[C@H](CCCNC(=N)N)NC(=O)[C@H](CO)NC(=O)[C@H](CCCCN)NC(=O)[C@@H]4CCCN4C(=O)[C@H]([C@@H](C)CC)NC(=O)[C@H]([C@@H](C)O)NC(=O)[C@H](CC(=O)O)NC(=O)[C@H]([C@@H](C)CC)NC(=O)[C@@H](NC(=O)[C@H](CO)NC(=O)[C@@H](N)CCCNC(=N)N)CSSC[C@@H](C(=O)N[C@H](C(N)=O)[C@@H](C)O)NC(=O)[C@H]([C@@H](C)O)NC(=O)CNC3=O)C(=O)N[C@@H]([C@@H](C)O)C(=O)N[C@@H](C)C(=O)N[C@@H](Cc3ccccc3)C(=O)N[C@@H](CCCCN)C(=O)N2)NC(=O)[C@H](Cc2ccccc2)NC(=O)[C@H](CO)NC(=O)[C@H](CC(C)C)NC(=O)[C@H](CCCNC(=N)N)NC(=O)[C@H](Cc2ccc(O)cc2)NC(=O)[C@H](CCCCN)NC1=O` [[Lys16,Nva21]ShK-Thr-amide], the IC50 on hKv1.3 came to 0.03 nM; in experiment [1] it was 0.385 nM; in experiment [2] it was 0.702 nM.
For the compound `CCC[C@@H]1NC(=O)[C@H](CO)NC(=O)[C@H](Cc2c[nH]cn2)NC(=O)[C@H](CCCCN)NC(=O)[C@@H]2CSSC[C@@H]3NC(=O)[C@H]([C@@H](C)O)NC(=O)[C@H](CCCCN)NC(=O)[C@H](CCCNC(=N)N)NC(=O)[C@H](CSSC[C@H](NC(=O)[C@H](CCCNC(=N)N)NC(=O)[C@H](CO)NC(=O)[C@H](CCCCN)NC(=O)[C@@H]4CCCN4C(=O)[C@H]([C@@H](C)CC)NC(=O)[C@H]([C@@H](C)O)NC(=O)[C@H](CC(=O)O)NC(=O)[C@H]([C@@H](C)CC)NC(=O)[C@@H](NC(=O)[C@H](CO)NC(=O)[C@@H](N)CCCNC(=N)N)CSSC[C@@H](C(=O)NCCC(=O)O)NC(=O)[C@H]([C@@H](C)O)NC(=O)CNC3=O)C(=O)N[C@@H]([C@@H](C)O)C(=O)N[C@@H](C)C(=O)N[C@@H](Cc3ccccc3)C(=O)N[C@@H](CCCCN)C(=O)N2)NC(=O)[C@H](Cc2ccccc2)NC(=O)[C@H](CO)NC(=O)[C@H](CC(C)C)NC(=O)[C@H](CCCNC(=N)N)NC(=O)[C@H](Cc2ccc(O)cc2)NC(=O)[C@H](CCCCN)NC1=O` [[Lys16,Nva21]ShK-betaAla], the IC50 against hKv1.3 was determined as 12.6 nM; in experiment [1] it was 0.304 nM; in experiment [2] it was 0.231 nM.
On the same counts, the results for `CC[C@H](C)[C@@H]1NC(=O)[C@@H](NC(=O)[C@H](CO)NC(=O)[C@@H](N)CCCNC(=N)N)CSSC[C@@H](C(=O)O)NC(=O)[C@H]([C@@H](C)O)NC(=O)CNC(=O)[C@@H]2CSSC[C@@H]3NC(=O)[C@H](CCC(N)=O)NC(=O)[C@H](Cc4ccccc4)NC(=O)[C@H](C)NC(=O)[C@H]([C@@H](C)O)NC(=O)[C@H](CSSC[C@H](NC(=O)[C@H](Cc4ccccc4)NC(=O)[C@H](CO)NC(=O)[C@H](CC(C)C)NC(=O)[C@H](CCCNC(=N)N)NC(=O)[C@H](Cc4ccc(O)cc4)NC(=O)[C@H](CCCCN)NC(=O)[C@H](CCSC)NC(=O)[C@H](CO)NC(=O)[C@H](CCCCN)NC(=O)[C@H](CCCCN)NC3=O)C(=O)N[C@@H](CCCNC(=N)N)C(=O)N[C@@H](CCCCN)C(=O)N[C@@H]([C@@H](C)O)C(=O)N2)NC(=O)[C@H](CCCNC(=N)N)NC(=O)[C@H](CO)NC(=O)[C@H](CCCCN)NC(=O)[C@@H]2CCCN2C(=O)[C@H]([C@@H](C)CC)NC(=O)[C@H]([C@@H](C)O)NC(=O)[C@H](CC(=O)O)NC1=O` [[Lys19]ShK] are 0.189 nM, 0.041 nM and 0.089 nM.
Take `CC[C@H](C)[C@@H]1NC(=O)[C@@H](NC(=O)[C@H](CO)NC(=O)[C@@H](N)CCCNC(=N)N)CSSC[C@@H](C(=O)O)NC(=O)[C@H]([C@@H](C)O)NC(=O)CNC(=O)[C@@H]2CSSC[C@@H]3NC(=O)[C@H](CCC(N)=O)NC(=O)[C@H](Cc4ccccc4)NC(=O)[C@H](C)NC(=O)[C@H]([C@@H](C)O)NC(=O)[C@H](CSSC[C@H](NC(=O)[C@H](Cc4ccccc4)NC(=O)[C@H](CO)NC(=O)[C@H](CC(C)C)NC(=O)[C@H](CCCNC(=N)N)NC(=O)[C@H](Cc4ccc(O)cc4)NC(=O)[C@H](CCCCN)NC(=O)[C@H](CCSC)NC(=O)[C@H](CCCCN)NC(=O)[C@H](Cc4c[nH]cn4)NC(=O)[C@H](CCCCN)NC3=O)C(=O)N[C@@H](CCCNC(=N)N)C(=O)N[C@@H](CCCCN)C(=O)N[C@@H]([C@@H](C)O)C(=O)N2)NC(=O)[C@H](CCCNC(=N)N)NC(=O)[C@H](CO)NC(=O)[C@H](CCCCN)NC(=O)[C@@H]2CCCN2C(=O)[C@H]([C@@H](C)CC)NC(=O)[C@H]([C@@H](C)O)NC(=O)[C@H](CC(=O)O)NC1=O` [[Lys20]ShK]: the IC50 against hKv1.3 stood at 1.33 nM; in experiment [1] it was 0.108 nM; in experiment [2] it was 0.192 nM.
In the same order, the values of `CC[C@H](C)[C@@H]1NC(=O)[C@@H](NC(=O)[C@H](CO)NC(=O)[C@@H](N)CCCNC(=N)N)CSSC[C@@H](C(=O)O)NC(=O)[C@H]([C@@H](C)O)NC(=O)CNC(=O)[C@@H]2CSSC[C@@H]3NC(=O)[C@H](CCC(N)=O)NC(=O)[C@H](Cc4ccccc4)NC(=O)[C@H](C)NC(=O)[C@H]([C@@H](C)O)NC(=O)[C@H](CSSC[C@H](NC(=O)[C@H](Cc4ccccc4)NC(=O)[C@H](CO)NC(=O)[C@H](CC(C)C)NC(=O)[C@H](CCCNC(=N)N)NC(=O)[C@H](Cc4ccc(O)cc4)NC(=O)[C@H](CCCCN)NC(=O)[C@H](CCCCN)NC(=O)[C@H](CO)NC(=O)[C@H](Cc4c[nH]cn4)NC(=O)[C@H](CCCCN)NC3=O)C(=O)N[C@@H](CCCNC(=N)N)C(=O)N[C@@H](CCCCN)C(=O)N[C@@H]([C@@H](C)O)C(=O)N2)NC(=O)[C@H](CCCNC(=N)N)NC(=O)[C@H](CO)NC(=O)[C@H](CCCCN)NC(=O)[C@@H]2CCCN2C(=O)[C@H]([C@@H](C)CC)NC(=O)[C@H]([C@@H](C)O)NC(=O)[C@H](CC(=O)O)NC1=O` [[Lys21]ShK] are 0.822 nM, 3.59 nM and 4.82 nM.
Turning to `CC[C@H](C)[C@@H]1NC(=O)[C@@H](NC(=O)[C@H](CO)NC(=O)[C@@H](N)CCCNC(=N)N)CSSC[C@@H](C(=O)O)NC(=O)[C@H]([C@@H](C)O)NC(=O)CNC(=O)[C@@H]2CSSC[C@@H]3NC(=O)[C@H](CCC(N)=O)NC(=O)[C@H](Cc4ccccc4)NC(=O)[C@H](C)NC(=O)[C@H]([C@@H](C)O)NC(=O)[C@H](CSSC[C@H](NC(=O)[C@H](Cc4ccccc4)NC(=O)[C@H](CO)NC(=O)[C@H](CCCCN)NC(=O)[C@H](CCCNC(=N)N)NC(=O)[C@H](Cc4ccc(O)cc4)NC(=O)[C@H](CCCCN)NC(=O)[C@H](CCSC)NC(=O)[C@H](CO)NC(=O)[C@H](Cc4c[nH]cn4)NC(=O)[C@H](CCCCN)NC3=O)C(=O)N[C@@H](CCCNC(=N)N)C(=O)N[C@@H](CCCCN)C(=O)N[C@@H]([C@@H](C)O)C(=O)N2)NC(=O)[C@H](CCCNC(=N)N)NC(=O)[C@H](CO)NC(=O)[C@H](CCCCN)NC(=O)[C@@H]2CCCN2C(=O)[C@H]([C@@H](C)CC)NC(=O)[C@H]([C@@H](C)O)NC(=O)[C@H](CC(=O)O)NC1=O` [[Lys25]ShK], the results for the IC50 (at hKv1.3; in experiment [1]; in experiment [2]) were 0.101 nM, 0.226 nM and 0.366 nM, respectively.
In the same order, the values of `CC[C@H](C)[C@@H]1NC(=O)[C@@H](NC(=O)[C@H](CO)NC(=O)[C@@H](N)CCCNC(=N)N)CSSC[C@@H](C(=O)O)NC(=O)[C@H]([C@@H](C)O)NC(=O)CNC(=O)[C@@H]2CSSC[C@@H]3NC(=O)[C@H](CCC(N)=O)NC(=O)[C@H](Cc4ccccc4)NC(=O)[C@H](C)NC(=O)[C@H]([C@@H](C)O)NC(=O)[C@H](CSSC[C@H](NC(=O)[C@H](Cc4ccccc4)NC(=O)[C@H](CCCCN)NC(=O)[C@H](CC(C)C)NC(=O)[C@H](CCCNC(=N)N)NC(=O)[C@H](Cc4ccc(O)cc4)NC(=O)[C@H](CCCCN)NC(=O)[C@H](CCSC)NC(=O)[C@H](CO)NC(=O)[C@H](Cc4c[nH]cn4)NC(=O)[C@H](CCCCN)NC3=O)C(=O)N[C@@H](CCCNC(=N)N)C(=O)N[C@@H](CCCCN)C(=O)N[C@@H]([C@@H](C)O)C(=O)N2)NC(=O)[C@H](CCCNC(=N)N)NC(=O)[C@H](CO)NC(=O)[C@H](CCCCN)NC(=O)[C@@H]2CCCN2C(=O)[C@H]([C@@H](C)CC)NC(=O)[C@H]([C@@H](C)O)NC(=O)[C@H](CC(=O)O)NC1=O` [[Lys26]ShK] are 0.115 nM, 0.273 nM and 0.495 nM.
Regarding `CC[C@H](C)[C@@H]1NC(=O)[C@@H](NC(=O)[C@H](CO)NC(=O)[C@@H](N)CCCNC(=N)N)CSSC[C@@H](C(=O)O)NC(=O)[C@H]([C@@H](C)O)NC(=O)CNC(=O)[C@@H]2CSSC[C@@H]3NC(=O)[C@H](CCC(N)=O)NC(=O)[C@H](Cc4ccccc4)NC(=O)[C@H](C)NC(=O)[C@H]([C@@H](C)O)NC(=O)[C@H](CSSC[C@H](NC(=O)[C@H](CCCCN)NC(=O)[C@H](CO)NC(=O)[C@H](CC(C)C)NC(=O)[C@H](CCCNC(=N)N)NC(=O)[C@H](Cc4ccc(O)cc4)NC(=O)[C@H](CCCCN)NC(=O)[C@H](CCSC)NC(=O)[C@H](CO)NC(=O)[C@H](Cc4c[nH]cn4)NC(=O)[C@H](CCCCN)NC3=O)C(=O)N[C@@H](CCCNC(=N)N)C(=O)N[C@@H](CCCCN)C(=O)N[C@@H]([C@@H](C)O)C(=O)N2)NC(=O)[C@H](CCCNC(=N)N)NC(=O)[C@H](CO)NC(=O)[C@H](CCCCN)NC(=O)[C@@H]2CCCN2C(=O)[C@H]([C@@H](C)CC)NC(=O)[C@H]([C@@H](C)O)NC(=O)[C@H](CC(=O)O)NC1=O` [[Lys27]ShK], the IC50 at hKv1.3 stood at 0.928 nM; in experiment [1], 3.48 nM; in experiment [2], 11.8 nM.
